# Experimental data as given in ChEMBL document CHEMBL1201862, “PubChem BioAssay data set” (2004).
#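 Dose response: 5 concentrations. Exposure: 48 h. Format: 96-well plates. Endpoint: linear interpolation; highest concentration if not reached. GI50 is the concentration that inhibits growth by half.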 Calls of active or inactive are those of the source. Cut-off read from the data, not from the text of the source: active = GI50 up to about 1.1 µM and inactive = higher.
# Tests used:
# Test in all cases: NCI anticancer screen, dose series, 48 h
# OVCAR-8 = test system: OVCAR-8
# M14 = test system: M14
# OVCAR-3 = test system: OVCAR-3
# HCT-116 = test system: HCT-116
# OVCAR-4 = test system: OVCAR-4
# SF-539 = test system: SF-539
# SN12C = test system: SN12C
# NCI-H522 = test system: NCI-H522
# LXFL 529 = test system: LXFL 529
# RXF 393 = test system: RXF 393
# KM12 = test system: KM12
# SF-295 = test system: SF-295
# HOP-92 = test system: HOP-92
# OVCAR-5 = test system: OVCAR-5
# COLO 205 = test system: COLO 205
# SNB-75 = test system: SNB-75
# DMS-273 = test system: DMS-273
# BT-549 = test system: BT-549
# NCI-H460 = test system: NCI-H460
# SR = test system: SR
# SK-MEL-28 = test system: SK-MEL-28
# HL-60 = test system: HL-60
# SNB-19 = test system: SNB-19
# RPMI-8226 = test system: RPMI-8226
# UO-31 = test system: UO-31
# CCRF-CEM = test system: CCRF-CEM
# NCI-H23 = test system: NCI-H23
# SNB-78 = test system: SNB-78
# SK-MEL-2 = test system: SK-MEL-2
# SW-620 = test system: SW-620
# XF498 = test system: XF498
# HOP-18 = test system: HOP-18
# A498 = test system: A498
# DU-145 = test system: DU-145
# SF-268 = test system: SF-268
# SK-OV-3 = test system: SK-OV-3
# CAKI-1 = test system: CAKI-1
# Malme-3M = test system: Malme-3M
# Hs-578T = test system: Hs-578T
# UACC-257 = test system: UACC-257
# SK-MEL-5 = test system: SK-MEL-5
# MCF7 = test system: MCF7
# DLD-1 = test system: DLD-1
# M19-MEL = test system: M19-MEL
# KM-20L2 = test system: KM-20L2
# 786-0 = test system: 786-0
# NCI-H226 = test system: NCI-H226
# MDA-MB-231 = test system: MDA-MB-231
# HOP-62 = test system: HOP-62
# U-251 = test system: U-251
# A549 = test system: A549
# T47D = test system: T47D
# RXF 631 = test system: RXF 631
# LOX IMVI = test system: LOX IMVI
# HCT-15 = test system: HCT-15
# TK-10 = test system: TK-10
# DMS-114 = test system: DMS-114
# IGROV-1 = test system: IGROV-1
# UACC-62 = test system: UACC-62
# EKVX = test system: EKVX
# K562 = test system: K562
# HCC 2998 = test system: HCC 2998
# MOLT-4 = test system: MOLT-4
# PC-3 = test system: PC-3
# HT-29 = test system: HT-29
# ACHN = test system: ACHN
# MDA-N = test system: MDA-N
smiles,measurement,setting,value
Cc1cc(-c2c(F)cc3c4nn([C@H]5CC[C@@H](N(C)C)CC5)c(=O)c-4cn(C4CC4)c3c2F)cc(C)n1,GI50,OVCAR-8,221 nM (active)
same,GI50,M14,460 nM (active)
same,GI50,OVCAR-3,805 nM (active)
same,GI50,HCT-116,160 nM (active)
same,GI50,OVCAR-4,3360 nM (inactive)
same,GI50,SF-539,177 nM (active)
same,GI50,SN12C,168 nM (active)
same,GI50,NCI-H522,169 nM (active)
same,GI50,LXFL 529,52.8 nM (active)
same,GI50,RXF 393,430 nM (active)
same,GI50,KM12,313 nM (active)
same,GI50,SF-295,169 nM (active)
same,GI50,HOP-92,45.3 nM (active)
same,GI50,OVCAR-5,1420 nM (inactive)
same,GI50,COLO 205,208 nM (active)
same,GI50,SNB-75,51.2 nM (active)
same,GI50,DMS-273,5.94 nM (active)
same,GI50,BT-549,479 nM (active)
same,GI50,NCI-H460,< 22.4 nM (active)
same,GI50,SR,73.5 nM (active)
same,GI50,SK-MEL-28,687 nM (active)
same,GI50,HL-60,38.3 nM (active)
same,GI50,SNB-19,309 nM (active)
same,GI50,RPMI-8226,1110 nM (active)
same,GI50,UO-31,1590 nM (inactive)
same,GI50,CCRF-CEM,45.2 nM (active)
same,GI50,NCI-H23,132 nM (active)
same,GI50,SNB-78,280 nM (active)
same,GI50,SK-MEL-2,820 nM (active)
same,GI50,SW-620,195 nM (active)
same,GI50,XF498,318 nM (active)
same,GI50,HOP-18,197 nM (active)
same,GI50,A498,22.9 nM (active)
same,GI50,DU-145,416 nM (active)
same,GI50,SF-268,119 nM (active)
same,GI50,SK-OV-3,183 nM (active)
same,GI50,CAKI-1,51.9 nM (active)
same,GI50,Malme-3M,380 nM (active)
same,GI50,Hs-578T,173 nM (active)
same,GI50,UACC-257,1250 nM (inactive)
same,GI50,SK-MEL-5,289 nM (active)
same,GI50,MCF7,72.8 nM (active)
same,GI50,DLD-1,42.8 nM (active)
same,GI50,M19-MEL,89.1 nM (active)
same,GI50,KM-20L2,140 nM (active)
same,GI50,786-0,133 nM (active)
same,GI50,NCI-H226,101 nM (active)
same,GI50,MDA-MB-231,536 nM (active)
same,GI50,HOP-62,97 nM (active)
same,GI50,U-251,105 nM (active)
same,GI50,A549,161 nM (active)
same,GI50,T47D,347 nM (active)
same,GI50,RXF 631,35.5 nM (active)
same,GI50,LOX IMVI,99.8 nM (active)
same,GI50,HCT-15,1740 nM
same,GI50,TK-10,519 nM (active)
same,GI50,DMS-114,24 nM (active)
same,GI50,IGROV-1,1660 nM (inactive)
same,GI50,UACC-62,159 nM (active)
same,GI50,EKVX,2060 nM (inactive)
same,GI50,K562,29.7 nM (active)
same,GI50,HCC 2998,290 nM (active)
same,GI50,MOLT-4,< 31.6 nM (active)
same,GI50,PC-3,1560 nM (inactive)
same,GI50,HT-29,245 nM (active)
same,GI50,ACHN,214 nM (active)
same,GI50,MDA-N,1560 nM (inactive)
